This assay has as its system CD2F1 mice, L1210 leukemia ip, survival T/C. Briefly: NCI In Vivo Anticancer Drug Screen. Data for tumor model L1210 Leukemia (intraperitoneal) in CD2F1 (CDF1) mice. The settings on record: higher = longer survival. A digest of the protocol: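 Activity against a transplanted murine tumor was judged by comparing the compound group with a vehicle group. The outcome in the treated animals was divided by that in the controls.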

Where [1] appears, read: endpoint: mean survival time, dose: 12.5 mg/kg/injection, schedule: Q01DX009 (ip), vehicle: saline with Tween-80.
Where [2] appears, read: endpoint: mean survival time, dose: 25.0 mg/kg/injection, schedule: Q01DX009 (ip), vehicle: saline with Tween-80.
[3] abbreviates: endpoint: mean survival time, dose: 50.0 mg/kg/injection, schedule: Q01DX001 (ip), vehicle: saline with Tween-80.
Where [4] appears, read: endpoint: mean survival time, dose: 50.0 mg/kg/injection, schedule: Q01DX009 (ip), vehicle: saline with Tween-80.
[5] abbreviates: endpoint: mean survival time, dose: 100.0 mg/kg/injection, schedule: Q01DX009 (ip), vehicle: saline with Tween-80.
Setting [6] is: endpoint: mean survival time, dose: 100.0 mg/kg/injection, schedule: Q04DX003 (ip), vehicle: saline with Tween-80.
[7] abbreviates: endpoint: mean survival time, dose: 200.0 mg/kg/injection, schedule: Q01DX009 (ip), vehicle: saline with Tween-80.
Where [8] appears, read: endpoint: mean survival time, dose: 400.0 mg/kg/injection, schedule: Q01DX009 (ip), vehicle: saline with Tween-80.
Where [9] appears, read: endpoint: mean survival time, dose: 100.0 mg/kg/injection, schedule: Q04DX003 (ip), vehicle: saline.
Setting [10] is: endpoint: mean survival time, dose: 200.0 mg/kg/injection, schedule: Q04DX003 (ip), vehicle: saline.
Where [11] appears, read: endpoint: mean survival time, dose: 200.0 mg/kg/injection, schedule: Q04DX002 (ip), vehicle: saline with Tween-80.
Setting [12] is: endpoint: mean survival time, dose: 50.0 mg/kg/injection, schedule: Q04DX003 (ip), vehicle: saline with Tween-80.
Where [13] appears, read: endpoint: mean survival time, dose: 100.0 mg/kg/injection, schedule: Q04DX002 (ip), vehicle: saline with Tween-80.
The mark [14] stands for this setting: endpoint: mean survival time, dose: 400.0 mg/kg/injection, schedule: Q04DX002 (ip), vehicle: saline with Tween-80.
Where [15] appears, read: endpoint: mean survival time, dose: 100.0 mg/kg/injection, schedule: Q01DX001 (ip), vehicle: saline with Tween-80.
[16] abbreviates: endpoint: mean survival time, dose: 200.0 mg/kg/injection, schedule: Q01DX001 (ip), vehicle: saline with Tween-80.
[17] abbreviates: endpoint: mean survival time, dose: 400.0 mg/kg/injection, schedule: Q01DX001 (ip), vehicle: saline with Tween-80.

Values joined by “and” are separate entries in the source; they are usually repeats but may differ in a detail not shown here. Equal entries are not always repeated. Toxic doses and inconclusive results are not listed.

Consider `c1cc2c(cc1-c1nnc(-c3ccc4c(c3)OCO4)nn1)OCO2`, for which the T/C is 91 % of control (endpoint: mean survival time, dose: 12.5 mg/kg/injection, schedule: Q01DX001 (ip), vehicle: saline with Tween-80); 94 % of control under setting [1]; 90 % of control (endpoint: mean survival time, dose: 25.0 mg/kg/injection, schedule: Q01DX001 (ip), vehicle: saline with Tween-80); 96 % of control under setting [2]; 95 % of control under setting [3]; 88 % of control under setting [4].

Take `Cc1cc2c(C(C)C)c(O)c(O)c(C=NCCO)c2c(O)c1-c1c(C)cc2c(C(C)C)c(O)c(O)c(C=NCCO)c2c1O`: the T/C by setting is: (endpoint: median survival time, dose: 25.0 mg/kg/injection, schedule: Q01DX009 (ip), vehicle: saline with Tween-80) 105 % of control; (endpoint: median survival time, dose: 50.0 mg/kg/injection, schedule: Q01DX009 (ip), vehicle: saline with Tween-80) 97 % of control; (endpoint: median survival time, dose: 100.0 mg/kg/injection, schedule: Q01DX009 (ip), vehicle: saline with Tween-80) 101 % of control; (endpoint: median survival time, dose: 200.0 mg/kg/injection, schedule: Q01DX009 (ip), vehicle: saline with Tween-80) 104 % of control; (endpoint: median survival time, dose: 400.0 mg/kg/injection, schedule: Q01DX009 (ip), vehicle: saline with Tween-80) 89 % of control.

With `O=C1CCNC(=O)N1`, the T/C is, setting by setting: under setting [5], 93 % of control; under setting [6], 106 % of control; under setting [7], 98 % of control; (endpoint: mean survival time, dose: 200.0 mg/kg/injection, schedule: Q04DX003 (ip), vehicle: saline with Tween-80) 101 % of control; under setting [8], 93 % of control; (endpoint: mean survival time, dose: 400.0 mg/kg/injection, schedule: Q04DX003 (ip), vehicle: saline with Tween-80) 95 % of control.

Turning to `CC(=O)OC(CC(=O)CC(OC(C)=O)(C(F)(F)F)C(F)(F)F)(C(F)(F)F)C(F)(F)F`, the T/C (endpoint: mean survival time, dose: 100.0 mg/kg/injection, schedule: Q01DX009 (ip), vehicle: saline) was 100 % of control; the T/C (endpoint: mean survival time, dose: 200.0 mg/kg/injection, schedule: Q01DX009 (ip), vehicle: saline) was 97 % of control; the T/C (endpoint: mean survival time, dose: 400.0 mg/kg/injection, schedule: Q01DX009 (ip), vehicle: saline) was 103 % of control.

Regarding `O=S(=O)(Nc1ccc2ccccc2c1)c1ccccc1`, the T/C is 98 % of control under setting [5]; 104 % of control under setting [9]; 98 % of control under setting [7]; 101 % of control under setting [10]; 98 % of control under setting [8]; 96 % of control (endpoint: mean survival time, dose: 400.0 mg/kg/injection, schedule: Q04DX003 (ip), vehicle: saline).

`CCCCC(=O)N(c1ccc(Nc2c3ccccc3nc3cc([N+](=O)[O-])ccc23)cc1)S(C)(=O)=O`: the T/C runs as follows: (endpoint: mean survival time, dose: 2.1 mg/kg/injection, schedule: Q04DX003 (ip), vehicle: Klucel (hydroxypropylcellulose) (HPC)) 117 % of control; under setting [2], 96 % of control; under setting [6], 98 % of control; under setting [9], 167 % of control; (endpoint: mean survival time, dose: 150.0 mg/kg/injection, schedule: Q04DX003 (ip), vehicle: saline with Tween-80) 93 % of control; under setting [10], 113 % of control.

With `O=C(CCCN1CCC(O)(c2cccc(C(F)(F)F)c2)CC1)c1ccc(F)cc1`, the T/C was 95 % of control (endpoint: mean survival time, dose: 12.5 mg/kg/injection, schedule: Q04DX003 (ip), vehicle: Klucel (hydroxypropylcellulose) (HPC)); 92 % of control (endpoint: mean survival time, dose: 25.0 mg/kg/injection, schedule: Q04DX003 (ip), vehicle: Klucel (hydroxypropylcellulose) (HPC)); 98 % of control (endpoint: mean survival time, dose: 50.0 mg/kg/injection, schedule: Q04DX003 (ip), vehicle: Klucel (hydroxypropylcellulose) (HPC)); 97 % of control (endpoint: mean survival time, dose: 100.0 mg/kg/injection, schedule: Q04DX003 (ip), vehicle: Klucel (hydroxypropylcellulose) (HPC)).

Regarding `CCC1(C(=O)OC)CCC2C3CCC4CCCCC4(C)C3CCC21C` (configuration not stated), the T/C reads like this: (endpoint: mean survival time, dose: 75.0 mg/kg/injection, schedule: Q04DX003 (sc), vehicle: steriod suspending solution) 103 % of control; (endpoint: mean survival time, dose: 150.0 mg/kg/injection, schedule: Q04DX003 (sc), vehicle: steriod suspending solution) 101 % of control; (endpoint: mean survival time, dose: 300.0 mg/kg/injection, schedule: Q04DX003 (sc), vehicle: steriod suspending solution) 101 % of control.

`CCC(CN(C)C)C(=O)c1ccccc1` (configuration not stated): the T/C is 91 % of control under setting [9], 86 % of control under setting [11] and 95 % of control under setting [10].

For the molecule `CC(NCCN(C)C)C1CCC2C3CCC4CC(O)CCC4(C)C3CCC12C` (configuration not stated), the T/C is, setting by setting: (endpoint: mean survival time, dose: 12.5 mg/kg/injection, schedule: Q04DX003 (ip), vehicle: saline with Tween-80) 101 % of control; (endpoint: mean survival time, dose: 25.0 mg/kg/injection, schedule: Q04DX003 (ip), vehicle: saline with Tween-80) 95 % of control; under setting [12], 101 % of control.

Regarding `CCOP(=S)(OCC)N1CC1`, the T/C under setting [13] is 104 % of control, the T/C under setting [11] is 93 % of control and the T/C under setting [14] was 89 % of control.

Consider `COC(=O)C1CSCC1=O` (configuration not stated), for which the T/C runs as follows: under setting [3], 97 % of control; under setting [15], 97 % of control; under setting [16], 103 % of control.

As for `CC(=O)C1=C2c3ccccc3C(=O)c3c(Br)cc(S(=O)(=O)O)c(c32)NC1`, the T/C reads like this: under setting [15], 94 % of control; under setting [16], 94 % of control; under setting [17], 90 % of control.

In the case of `O=C(c1ccccc1)c1ccc2cc(O)ccc2c1`, the T/C is, setting by setting: under setting [15], 102 % of control; under setting [13], 94 % of control; under setting [16], 92 % of control; under setting [11], 90 % of control; under setting [17], 96 % of control; under setting [14], 86 % of control.

For `CC1(CNC(=O)C(=O)NCC2(C)CO2)CO1` (configuration not stated), the T/C by setting is: (endpoint: mean survival time, dose: 22.0 mg/kg/injection, schedule: Q01DX Z (ip), vehicle: saline) 122 % of control; (endpoint: mean survival time, dose: 150.0 mg/kg/injection, schedule: Q01DX010 (ip), vehicle: saline) 113 % of control; (endpoint: mean survival time, dose: 225.0 mg/kg/injection, schedule: Q01DX010 (ip), vehicle: saline) 106 % of control.

Consider `COc1cc(C)c(O)c(C[P+](c2ccccc2)(c2ccccc2)c2ccccc2)c1`, for which the T/C is, setting by setting: under setting [2], 98 % of control; under setting [4], 94 % of control; under setting [12], 106 % of control; under setting [6], 96 % of control.

With `O=[N+]([O-])c1cccc(N=NN2CCCC2)c1`, the T/C was 101 % of control under setting [5], 92 % of control under setting [7] and 87 % of control under setting [8].

On to `CN(C)C/C(=C\c1ccccc1)C(=O)c1ccccc1`, for which the T/C (endpoint: mean survival time, dose: 12.5 mg/kg/injection, schedule: Q04DX003 (ip), vehicle: other) is 98 % of control; the T/C (endpoint: mean survival time, dose: 25.0 mg/kg/injection, schedule: Q04DX003 (ip), vehicle: other) is 97 % of control; the T/C (endpoint: mean survival time, dose: 50.0 mg/kg/injection, schedule: Q04DX003 (ip), vehicle: other) was 101 % of control.

For the molecule `O=C(CC(c1ccccc1)C(C(=O)O)C(=O)O)c1ccccc1` (configuration not stated), the T/C runs as follows: (endpoint: mean survival time, dose: 100.0 mg/kg/injection, schedule: Q04DX002 (ip), vehicle: other) 97 % of control; (endpoint: mean survival time, dose: 200.0 mg/kg/injection, schedule: Q04DX002 (ip), vehicle: other) 101 % of control; (endpoint: mean survival time, dose: 400.0 mg/kg/injection, schedule: Q04DX002 (ip), vehicle: other) 104 % of control.

As to `COc1cc(Cl)ccc1NC(=O)N1CCN(c2ccccc2)CC1`, the T/C is 96 % of control under setting [1]; 96 % of control under setting [2]; 92 % of control and 93 % of control under setting [4]; 86 % of control under setting [7].

Take `CN(C)C(=O)Sc1ccc(S(=O)(=O)F)cc1F`: the T/C reads like this: under setting [13], 91 % of control; under setting [11], 91 % of control.

Turning to `CCCCCCCCCCCCNC1=CC(=O)c2nccnc2C1=O`, the T/C (endpoint: mean survival time, dose: 6.25 mg/kg/injection, schedule: Q01DX009 (ip), vehicle: saline with Tween-80) is 98 % of control; the T/C under setting [1] is 95 % of control; the T/C under setting [2] was 91 % of control; the T/C under setting [4] is 91 % of control; the T/C under setting [5] is 95 % of control.

Take `[Ni+2].[S-]Cc1ccccc1.[S-]Cc1ccccc1`: the T/C (endpoint: mean survival time, dose: 100.0 mg/kg/injection, schedule: Q01DX001 (ip), vehicle: saline) was 100 % of control and the T/C (endpoint: mean survival time, dose: 200.0 mg/kg/injection, schedule: Q01DX001 (ip), vehicle: saline) was 96 % of control.

Take `Oc1ccccc1/C=N/c1nc(-c2ccccc2)cs1`: the T/C is 86 % of control under setting [15], 107 % of control under setting [16] and 93 % of control under setting [17].

The values above are taken from PubChem BioAssay AID256 (DTP/NCI, 2004).
